# Laboratory results published in patent US10968183B2, “Small molecule FIEL1 inhibitor in inflammatory and fibrotic lung injury” (UNIVERSITY OF PITTSBURGH—OF THE COMMONWEALTH SYSTEM OF …, priority 2015, dated 2021).
# Entries after “also recorded” stand apart in the source; their conditions may differ.
# Key:
# JAK/STAT pathway = assay: JAK/STAT protein immunoblotting in HCT8 cells exposed to DSS or IFNγ; type: cell-based
# Experimental: HCT8 cells were pretreated with BC-1485 at different concentrations for 16 h before exposed to DSS (2%, 16 h) or IFNγ (10 ng/ml, 1 h). Cells were collected and assayed for protein immunoblotting.
# KIAA0317 and PIAS4 mRNA = assay: PIAS4 and KIAA0317 mRNA analysis (RT-qPCR); type: cell-based; details: treatment for 18 h; FIG. 15G
# Experimental: FIG. 15A. Diagram of the BC-1485 synthesis process. FIGS. 15B-15C. Docking studies of the lead compound, BC-1485, interacting with the FIEL1-HECT domain. FIG. 15D. MRC5 cells were treated with the compound at various doses; cells were also co-treated with TGFβ at 2 ng/ml. 18 h later, cells were collected and assayed for α-SMA expression. FIG. 15E. MRC5 cells were seeded in 35 mm glass bottom dishes before co-treatment with TGFβ at 2 ng/ml and BC-1480 or BC1485 at 5μM. FIG. 15F. PIAS4 protein half-life determination after BC-1480 or BC1485 treatment at 5μM for 18 h. FIG. 15G. PIAS4 and KIAA0317 mRNA analysis after BC1485 treatment for 18 h.
# Total RNA was isolated and reverse transcription was performed followed by real-time quantitative PCR with SYBR Green qPCR mixture as described in Butler et al. J. Biol. Chem. 2010, […]: 6246-6258. All mutant PIAS4 and KIAA0317 plasmid constructs were generated using PCR-based approaches and appropriate primers and subcloned into a pcDNA3.1D/V5-HIS vector.
# FIEL1/PIAS4 interaction = target: T1, FIEL1/PIAS4 interaction (Homo sapiens, UniProt O15033); assay: In vitro drug binding assay: PIAS4 pull-down on drug-bound FIEL1 beads
# T1 construct: made in house; host or cells: 293T cells (FIEL1)
# T1 sequence (O15033 1-789 isoform O15033-2): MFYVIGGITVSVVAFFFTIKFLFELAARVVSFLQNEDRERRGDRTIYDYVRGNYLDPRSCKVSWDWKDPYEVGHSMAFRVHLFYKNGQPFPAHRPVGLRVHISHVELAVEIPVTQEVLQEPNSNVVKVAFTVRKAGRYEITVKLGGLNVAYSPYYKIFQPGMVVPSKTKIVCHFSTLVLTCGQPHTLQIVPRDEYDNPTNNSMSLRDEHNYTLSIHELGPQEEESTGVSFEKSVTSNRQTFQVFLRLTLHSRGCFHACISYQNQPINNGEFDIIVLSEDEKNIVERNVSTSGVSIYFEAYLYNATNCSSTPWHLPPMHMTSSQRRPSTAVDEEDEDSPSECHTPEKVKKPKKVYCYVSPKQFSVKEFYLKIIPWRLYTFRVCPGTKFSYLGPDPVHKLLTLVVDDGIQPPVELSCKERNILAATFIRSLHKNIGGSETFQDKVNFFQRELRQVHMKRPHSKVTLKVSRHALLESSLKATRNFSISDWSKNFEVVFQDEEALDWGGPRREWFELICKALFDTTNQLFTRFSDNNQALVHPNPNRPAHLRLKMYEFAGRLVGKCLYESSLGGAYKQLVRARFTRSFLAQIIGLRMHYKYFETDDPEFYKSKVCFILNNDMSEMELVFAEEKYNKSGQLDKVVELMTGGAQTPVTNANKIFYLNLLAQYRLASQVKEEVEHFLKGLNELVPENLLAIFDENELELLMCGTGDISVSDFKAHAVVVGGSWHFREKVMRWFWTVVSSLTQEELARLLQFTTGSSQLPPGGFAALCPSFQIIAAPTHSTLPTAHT
# Experimental: FIG. 7A. […] FIG. 7B. Structures of the BC-1480 backbone and lead compound BC-1485. FIG. 7C. FIEL1 protein was HIS-purified from FIEL1 expression in 293T cells using cobalt beads. Beads were then extensively washed prior to exposure to BC-1480 or BC-1485 at different concentrations (10^−4 to 100 μM). Purified PIAS4 protein was then incubated with drug-bound FIEL1 beads overnight. Beads were washed, and proteins were eluted and resolved on SDS-PAGE. The relative amounts of PIAS4 detected in the pull-downs was normalized to loading and quantified (n=2). FIG. 7D. MLE cells were exposed to BC-1480 or BC-1485 at various concentrations for 18 h. Cells were then collected and immunoblotted. FIGS. 7E-J. C57BL/6J mice were administered with bleomycin (0.05 U) for 7-21 days. Compounds BC-1480 and BC-1485 were given to mice through drinking water with an estimated dose of 5 mg/kg/d. Mice were euthanized, and lungs were lavaged with saline, harvested, and then homogenized. Lavage proteins, CXCL1, and total cell count were measured in FIGS. 7E-G. H. Survival studies of mice that were given bleomycin and compound treatments. Mice were carefully monitored over time; moribund, preterminal animals were immediately euthanized and recorded as deceased. Kaplan-Meier survival curves were generated using SPSS software (p<0.01 compared to Vehicle). Vehicle: n=24, BC-1480: n=13, BC-1485: n=12. FIG. 7I. Hydroxyproline contents were measured in lungs from 7, 14, and 21d after bleomycin challenge. FIG. 7J. Trichrome staining was performed on lung samples from E. Original magnification, ×10. *p<0.05 compared to Vehicle (t-test). Data are an average of two experiments (FIGS. 7E-J, 4-8 mice/group)
# FIEL1 protein was HIS-purified from FIEL1 expression 293T cells using cobalt beads. Beads were then extensively washed prior to exposure to BC-1480 or BC-1485 at different concentrations (10^−4 to 100 μM). Purified recombinant PIAS4 protein was then incubated with drug-bound FIEL1 beads overnight. […] The relative amounts of PIAS4 detected in the pull-downs were normalized to loading and quantified.
# [1] = 16 h pretreatment, then DSS 2% 16 h or IFNγ 10 ng/ml 1 h
smiles,measurement,setting,value
CC(NC(=O)c1ccc(NS(=O)(=O)c2ccc3[nH]c(=O)[nH]c3c2)cc1)C(=O)N(C)C (stereo not drawn) [BC-1485],JAK/STAT pathway signaling,JAK/STAT pathway,inhibits the signaling transduction; also recorded: inhibits JAK/STAT pathway
same,JAK1 protein level,JAK/STAT pathway; [1],effectively decreases
same,JAK2 protein level,JAK/STAT pathway; [1],effectively decreases
same,p-Stat1 protein level,JAK/STAT pathway; [1],effectively decreases
same,p-Stat3 protein level,JAK/STAT pathway; [1],effectively decreases
same,KIAA0317 mRNA levels,KIAA0317 and PIAS4 mRNA,did not significantly alter
same,PIAS4 mRNA levels,KIAA0317 and PIAS4 mRNA,did not significantly alter
same,activity in disrupting the FIEL1/PIAS4 interaction compared to BC-1480,"FIEL1/PIAS4 interaction; 10^−4 to 100 μM compound on FIEL1 beads, FIG. 7C",> 100 fold
same,inhibition of FIEL1 and PIAS4 interaction,FIEL1/PIAS4 interaction; FIG. 7,inhibition of FIEL1 and PIAS4 interaction
